Measurements: ChEMBL document CHEMBL1158447, “Substituted benzimidazoles: A novel chemotype for small molecule hKSP inhibitors” (Bioorg Med Chem Lett, 2009)

Tests used:
[1] = target: T1, Kinesin-like protein KIF11 (Homo sapiens, UniProt P52732); test: Inhibition of human kinesin spindle protein by endpoint assay
T1 sequence (P52732 whole entry): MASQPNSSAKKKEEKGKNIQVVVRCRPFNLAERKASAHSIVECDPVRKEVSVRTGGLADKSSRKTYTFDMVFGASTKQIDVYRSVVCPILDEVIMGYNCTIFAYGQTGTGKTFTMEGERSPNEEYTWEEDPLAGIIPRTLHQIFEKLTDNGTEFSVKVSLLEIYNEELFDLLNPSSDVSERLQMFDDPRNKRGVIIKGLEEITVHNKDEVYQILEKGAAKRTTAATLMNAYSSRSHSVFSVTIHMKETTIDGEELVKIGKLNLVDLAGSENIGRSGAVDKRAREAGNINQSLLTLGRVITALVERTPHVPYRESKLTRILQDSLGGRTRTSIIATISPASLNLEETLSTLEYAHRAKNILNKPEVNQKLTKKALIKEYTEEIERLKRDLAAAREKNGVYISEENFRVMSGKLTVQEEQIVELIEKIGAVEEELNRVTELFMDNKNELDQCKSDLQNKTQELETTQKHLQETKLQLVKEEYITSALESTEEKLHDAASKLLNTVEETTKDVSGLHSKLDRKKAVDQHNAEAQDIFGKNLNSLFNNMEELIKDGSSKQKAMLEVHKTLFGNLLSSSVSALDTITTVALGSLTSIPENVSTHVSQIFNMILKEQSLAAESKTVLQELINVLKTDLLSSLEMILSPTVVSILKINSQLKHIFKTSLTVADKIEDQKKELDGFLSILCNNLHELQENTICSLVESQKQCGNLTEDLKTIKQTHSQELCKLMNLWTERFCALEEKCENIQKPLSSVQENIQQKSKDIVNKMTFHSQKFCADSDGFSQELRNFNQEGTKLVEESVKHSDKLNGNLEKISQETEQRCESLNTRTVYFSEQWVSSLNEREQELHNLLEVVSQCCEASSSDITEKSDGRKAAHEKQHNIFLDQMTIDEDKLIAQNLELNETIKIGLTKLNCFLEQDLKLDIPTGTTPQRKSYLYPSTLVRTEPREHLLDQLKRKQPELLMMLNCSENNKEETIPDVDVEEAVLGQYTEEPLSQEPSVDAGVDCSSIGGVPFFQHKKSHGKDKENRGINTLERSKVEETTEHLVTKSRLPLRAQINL

[2] = target: T2, Kinesin heavy chain isoform 5A (Homo sapiens, UniProt Q12840); test: Inhibition of nKHC
T2 sequence (Q12840 whole entry): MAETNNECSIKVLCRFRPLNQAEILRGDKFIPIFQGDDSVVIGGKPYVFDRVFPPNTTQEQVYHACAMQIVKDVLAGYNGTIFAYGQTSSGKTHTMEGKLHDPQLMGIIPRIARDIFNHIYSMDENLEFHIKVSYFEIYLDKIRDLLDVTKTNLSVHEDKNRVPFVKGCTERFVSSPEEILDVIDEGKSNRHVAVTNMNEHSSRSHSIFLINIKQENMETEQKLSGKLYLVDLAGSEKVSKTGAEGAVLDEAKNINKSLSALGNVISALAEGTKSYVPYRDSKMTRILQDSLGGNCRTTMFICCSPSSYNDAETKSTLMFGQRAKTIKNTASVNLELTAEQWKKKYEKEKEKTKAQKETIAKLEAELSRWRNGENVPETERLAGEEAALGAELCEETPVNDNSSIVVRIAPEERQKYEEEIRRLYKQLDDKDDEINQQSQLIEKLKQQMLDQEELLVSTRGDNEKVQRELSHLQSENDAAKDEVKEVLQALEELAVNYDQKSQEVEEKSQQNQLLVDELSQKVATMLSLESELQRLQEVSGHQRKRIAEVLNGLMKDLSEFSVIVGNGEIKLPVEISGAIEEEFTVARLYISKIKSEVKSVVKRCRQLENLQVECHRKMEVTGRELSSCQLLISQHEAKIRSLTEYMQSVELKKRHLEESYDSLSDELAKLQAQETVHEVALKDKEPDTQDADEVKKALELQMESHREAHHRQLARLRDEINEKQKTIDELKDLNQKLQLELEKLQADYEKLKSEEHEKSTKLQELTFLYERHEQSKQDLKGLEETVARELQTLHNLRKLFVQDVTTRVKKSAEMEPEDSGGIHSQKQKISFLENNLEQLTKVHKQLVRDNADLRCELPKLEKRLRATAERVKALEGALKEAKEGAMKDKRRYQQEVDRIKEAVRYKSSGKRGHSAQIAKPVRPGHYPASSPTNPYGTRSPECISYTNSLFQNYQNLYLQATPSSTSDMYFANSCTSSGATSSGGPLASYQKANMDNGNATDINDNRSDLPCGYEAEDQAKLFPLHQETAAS

[3] = target: T3, Kinesin-like protein KIF3B (Homo sapiens, UniProt O15066); test: Inhibition of Kif3B
T3 sequence (O15066 whole entry): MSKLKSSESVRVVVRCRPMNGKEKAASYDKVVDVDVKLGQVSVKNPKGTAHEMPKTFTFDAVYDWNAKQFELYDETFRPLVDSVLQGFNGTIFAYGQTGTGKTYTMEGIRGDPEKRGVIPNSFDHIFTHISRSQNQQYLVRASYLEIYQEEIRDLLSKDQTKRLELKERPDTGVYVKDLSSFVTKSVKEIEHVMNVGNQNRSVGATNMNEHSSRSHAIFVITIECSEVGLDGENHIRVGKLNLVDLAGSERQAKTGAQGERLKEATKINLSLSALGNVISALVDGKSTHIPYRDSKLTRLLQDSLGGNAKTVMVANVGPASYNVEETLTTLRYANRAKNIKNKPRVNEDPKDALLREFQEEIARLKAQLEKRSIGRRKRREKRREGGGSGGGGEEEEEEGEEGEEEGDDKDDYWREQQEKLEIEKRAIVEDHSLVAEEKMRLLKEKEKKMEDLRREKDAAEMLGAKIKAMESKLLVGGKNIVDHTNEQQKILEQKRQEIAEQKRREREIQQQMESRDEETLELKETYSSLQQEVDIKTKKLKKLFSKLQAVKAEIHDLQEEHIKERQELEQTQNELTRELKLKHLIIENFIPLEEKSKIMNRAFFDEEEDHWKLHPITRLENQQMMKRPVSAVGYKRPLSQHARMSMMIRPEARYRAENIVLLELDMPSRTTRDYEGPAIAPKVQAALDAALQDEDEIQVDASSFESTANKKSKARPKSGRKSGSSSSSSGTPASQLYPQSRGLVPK

[4] = target: Kinesin-like protein KIF11 (Homo sapiens) (UniProt P52732); test: Selectivity for human KSP over HSET

SMILES	IC50 [1]	IC50 [2]	IC50 [3]	fold change (FC) [4]
CSc1ccc(Cc2nc3cc(C(=O)O)ccc3n2Cc2ccccc2C(F)(F)F)cc1	> 20 µM			
CC(c1ccccc1C(F)(F)F)n1c(Nc2ccc(S(N)(=O)=O)cc2)nc2cc(C(N)=O)ccc21 (centres undefined)	> 20 µM	> 50 µM	> 50 µM	
NS(=O)(=O)c1ccc(CNc2nc3cc(C(=O)O)ccc3n2Cc2ccccc2C(F)(F)F)cc1	> 20 µM	> 50 µM	> 50 µM	
NS(=O)(=O)c1ccc(Nc2nc3cc(C(=O)N4CCCC4)ccc3n2Cc2ccccc2C(F)(F)F)cc1	> 20 µM	> 50 µM	> 50 µM	
CSc1ccc(Nc2nc3cc(C(=O)O)ccc3n2Cc2ccccc2C(F)(F)F)cc1	1.4 µM	> 50 µM	> 50 µM	
NC(=O)c1ccc2c(c1)nc(Nc1ccc(S(N)(=O)=O)cc1)n2Cc1csc2ccccc12	2.1 µM	> 50 µM	> 50 µM	> 24
COc1ccccc1NC(=O)c1ccc2c(c1)nc(Nc1ccc(S(N)(=O)=O)cc1)n2Cc1ccccc1C(F)(F)F	2.4 µM	> 50 µM	> 50 µM	
NC(=O)c1ccc2nc(Nc3ccc(S(N)(=O)=O)cc3)n(Cc3ccccc3C(F)(F)F)c2c1	> 20 µM			
COc1cccc(Cn2c(Nc3ccc(S(N)(=O)=O)cc3)nc3cc(C(N)=O)ccc32)c1OC	5 µM	> 50 µM	> 50 µM	
CNC(=O)c1ccc2c(c1)nc(Nc1ccc(S(N)(=O)=O)cc1)n2Cc1ccccc1C(F)(F)F	9.2 µM	> 50 µM	> 50 µM	
COc1ccc(CNc2nc3cc(C(=O)O)ccc3n2Cc2ccccc2C(F)(F)F)cc1	> 20 µM	> 50 µM	> 50 µM	
NS(=O)(=O)c1ccc(Nc2nc3cc(C(=O)O)ccc3n2Cc2ccccc2C(F)(F)F)cc1	> 20 µM	> 50 µM	> 50 µM	
CNC(=O)c1ccc2c(c1)nc(Nc1ccc(OC)cc1)n2Cc1ccccc1C(F)(F)F	5.2 µM	> 50 µM	> 50 µM	
COc1ccc(Nc2nc3cc(C(N)=O)ccc3n2Cc2ccccc2C(F)(F)F)cc1F	1.3 µM	> 50 µM	> 50 µM	11
NC(=O)c1ccc2c(c1)nc(Nc1ccc(S(N)(=O)=O)cc1)n2Cc1csc2ccc(Cl)cc12	19 µM	> 50 µM	> 50 µM	
COc1ccc(Nc2nc3cc(C(=O)O)ccc3n2Cc2ccccc2C(F)(F)F)cc1	> 20 µM	> 50 µM	> 50 µM	
NC(=O)c1cc2c(cc1F)nc(Nc1ccc(S(N)(=O)=O)cc1)n2Cc1ccccc1C(F)(F)F	> 20 µM			
O=C(O)c1ccc2c(c1)nc(NCCN1CCOCC1)n2Cc1ccccc1C(F)(F)F	> 20 µM	> 50 µM	> 50 µM	

The next lines start with the values.

IC50 [1]	IC50 [2]	IC50 [3]	fold change (FC) [4]	SMILES
20 µM	> 50 µM	> 50 µM		COc1ccccc1Cn1c(Nc2ccc(S(N)(=O)=O)cc2)nc2cc(C(N)=O)ccc21
13.4 µM	> 50 µM	> 50 µM		COC(=O)c1ccc2c(c1)nc(Nc1ccc(OC)cc1)n2Cc1ccccc1C(F)(F)F
33.4 µM	> 50 µM	> 50 µM		COC(=O)c1ccc2c(c1)nc(Nc1ccc(SC)cc1)n2Cc1ccccc1C(F)(F)F
7.9 µM				NC(=O)c1cc2nc(Nc3ccc(S(N)(=O)=O)cc3)n(Cc3ccccc3C(F)(F)F)c2cc1F
> 20 µM	> 50 µM	> 50 µM		NC(=O)c1ccc2c(c1)nc(Nc1ccc(S(N)(=O)=O)cc1)n2C1(c2ccccc2)CC1
> 20 µM	> 50 µM	> 50 µM		CS(=O)(=O)c1ccc(CNc2nc3cc(C(=O)O)ccc3n2Cc2ccccc2C(F)(F)F)cc1
6 µM	> 50 µM	> 50 µM		COc1ccc(Nc2nc3cc(C(=O)Nc4ccccc4OC)ccc3n2Cc2ccccc2C(F)(F)F)cc1
> 20 µM	> 50 µM	> 50 µM		NC1CCN(c2nc3cc(C(=O)O)ccc3n2Cc2ccccc2C(F)(F)F)C1 (centres undefined)
> 20 µM				COc1ccc(Cc2nc3cc(C(=O)O)ccc3n2Cc2ccccc2C(F)(F)F)cc1
6.9 µM	> 50 µM	> 50 µM	7	CS(=O)(=O)c1ccc(Nc2nc3cc(C(=O)O)ccc3n2Cc2ccccc2C(F)(F)F)cc1
> 20 µM	> 50 µM	> 50 µM		Cc1ccc(CNc2nc3cc(C(=O)O)ccc3n2Cc2ccccc2C(F)(F)F)cc1
2.2 µM	> 50 µM	> 50 µM		COC(=O)c1ccc2c(c1)nc(Nc1ccc(S(N)(=O)=O)cc1)n2Cc1ccccc1C(F)(F)F
7.4 µM	> 50 µM	> 50 µM	5	NC(=O)c1ccc2c(c1)nc(Nc1ccc(S(N)(=O)=O)cc1)n2Cc1ccccc1C(F)(F)F
2.3 µM	> 50 µM	> 50 µM		COc1ccc(Nc2nc3cc(C(=O)O)ccc3n2Cc2ccccc2C(F)(F)F)cc1F
> 20 µM	> 50 µM	> 50 µM		NC(=O)c1ccc2c(c1)nc(Nc1ccc(S(N)(=O)=O)cc1)n2Cc1nc2ccccc2s1
16.3 µM	> 50 µM	> 50 µM		CN(C)C(=O)c1ccc2c(c1)nc(Nc1ccc(S(N)(=O)=O)cc1)n2Cc1ccccc1C(F)(F)F
> 20 µM	> 50 µM	> 50 µM		NC(=O)c1ccc2c(c1)nc(Nc1ccc(S(N)(=O)=O)cc1)n2Cc1ccccn1
